Data on ten compounds can be found in article PMC7057333 (ACS Omega, 2020).

Assay [1] addresses T1, LSD1 (Homo sapiens, UniProt O60341).
T1 construct: made in house; host or cells: Escherichia coli Rosetta 2 (pET15b)
Put plainly: SPR biosensor interaction kinetic assay with immobilized LSD1 (15 °C, TBS-T with DTT). In kind it is binding.

In assay [2] the target is T1, LSD1. Put plainly: HRP-coupled fluorescence LSD1 demethylation activity and inhibition assay, substrate H3_1-21 K4(Me). In kind it is biochemical.
The mark [3] stands for this setting: 100 μM, supplement sheet SMILES and Activity, read-out: Inhibition at 100 μM (%).

Like-named read-outs stand apart in the source and are kept apart here. Ends that are not written are not given here. Some results are limits rather than exact numbers.

Turning to `CSCC[C@H](NC(=O)[C@@H](NC(=O)[C@H](CCCNC(=N)N)NC(=O)[C@H](C)N)[C@@H](C)O)C(=O)N[C@@H](CCC(N)=O)C(=O)N[C@H](C(=O)N[C@@H](C)C(=O)N[C@@H](CCCNC(=N)N)C(=O)N[C@@H](CCCCN)C(=O)N[C@@H](CO)C(=O)N[C@H](C(=O)NCC(=O)NCC(=O)N[C@@H](CCCCN)C(=O)N[C@@H](C)C(=O)O)[C@@H](C)O)[C@@H](C)O` [Peptide 2], on LSD1 [1], the affinity, expressed as Kd, was 5 µM. Compound `CSCC[C@H](NC(=O)[C@@H](NC(=O)[C@H](CCCNC(=N)N)NC(=O)[C@H](C)N)[C@@H](C)O)C(=O)N[C@@H](CCC(N)=O)C(=O)N[C@H](C(=O)N[C@@H](C)C(=O)N[C@@H](CCCNC(=N)N)C(=O)N[C@@H](CCCCN)C(=O)N[C@@H](CO)C(=O)N[C@H](C(=O)O)[C@@H](C)O)[C@@H](C)O` [Peptide 4] gave a dissociation constant (Kd) at LSD1 [1] (KD, SPR, immobilized LSD1, 15 °C, ni = no interaction observed, ns = high nonspecific binding, weak interactions only approximated, highest concentration 200 μM) of about 140 µM. This compound also yielded a 50% inhibitory concentration (IC50) against LSD1 [2] of over 100 µM. On LSD1 [1], `CSCC[C@H](NC(=O)[C@@H](NC(=O)[C@H](CCCNC(=N)N)NC(=O)[C@H](C)N)[C@@H](C)O)C(=O)N[C@@H](CCC(N)=O)C(=O)N[C@H](C(=O)N[C@@H](C)C(=O)N[C@@H](CCCNC(=N)N)C(=O)N[C@@H](CCCCN)C(=O)O)[C@@H](C)O` [Peptide 5] yielded a dissociation constant Kd of over 200 µM. Still for that read-out and setting: for `C[C@H](N)C(=O)N[C@@H](CCCNC(=N)N)C(=O)N[C@H](C(=O)N[C@@H](CCCCN)C(=O)N[C@@H](CCC(N)=O)C(=O)N[C@H](C(=O)N[C@@H](C)C(=O)N[C@@H](CCCNC(=N)N)C(=O)N[C@@H](CCCCN)C(=O)N[C@@H](CO)C(=O)N[C@H](C(N)=O)[C@@H](C)O)[C@@H](C)O)[C@@H](C)O` [Peptide 9] the value was over 100 µM; for `CCCC[C@H](NC(=O)[C@@H](NC(=O)[C@H](CCCNC(=N)N)NC(=O)[C@H](C)N)[C@@H](C)O)C(=O)N[C@@H](CCC(N)=O)C(=O)N[C@H](C(=O)N[C@@H](C)C(=O)N[C@@H](CCCNC(=N)N)C(=O)N[C@@H](CCCCN)C(=O)N[C@@H](CO)C(=O)N[C@H](C(N)=O)[C@@H](C)O)[C@@H](C)O` [Peptide 15, ART(Nle)QTARKST-NH2], over 200 µM; for `CCCCCC[C@H](NC(=O)[C@@H](NC(=O)[C@H](CCCNC(=N)N)NC(=O)[C@H](C)N)[C@@H](C)O)C(=O)N[C@@H](CCC(N)=O)C(=O)N[C@H](C(=O)N[C@@H](C)C(=O)N[C@@H](CCCNC(=N)N)C(=O)N[C@@H](CCCCN)C(=O)N[C@@H](CO)C(=O)N[C@H](C(N)=O)[C@@H](C)O)[C@@H](C)O` [Peptide 16, ART(Aoc)QTARKST-NH2], over 200 µM. Same read-out and setting: for `C[C@H](N)C(=O)N[C@@H](CCCNC(=N)N)C(=O)N[C@H](C(=O)N[C@@H](CCc1ccccc1)C(=O)N[C@@H](CCC(N)=O)C(=O)N[C@H](C(=O)N[C@@H](C)C(=O)N[C@@H](CCCNC(=N)N)C(=O)N[C@@H](CCCCN)C(=O)N[C@@H](CO)C(=O)N[C@H](C(N)=O)[C@@H](C)O)[C@@H](C)O)[C@@H](C)O` [Peptide 17, ART(homoPhe)QTARKST-NH2] the value was over 200 µM. As to `CSCC[C@@H]1NC(=O)[C@@H](NC(=O)[C@H](CCCNC(=N)N)NC(=O)[C@H](C)N)C/C=C\C[C@@H](C(=O)N[C@@H](C)C(=O)N[C@@H](CCCNC(=N)N)C(=O)N[C@@H](CCCCN)C(=O)N[C@@H](CO)C(=O)N[C@H](C(N)=O)[C@@H](C)O)NC(=O)[C@H](CCC(N)=O)NC1=O` [Peptide 21, ARG^alyMQG^alyARKST-NH2], at LSD1 [1], the dissociation constant (Kd) is over 100 µM. Moreover, the inhibition at 100 µM on LSD1 [2] (setting [3]) and at LSD1 [2] (read-out: % inhibition at 100 μM) was 95% each time.

In the case of ARTMQTA-OH [Peptide 6, ARTMQTA-OH], the Kd on LSD1 [1] was over 200 µM.

On LSD1 [1], PRTMQTARKST-NH2 [Peptide 11] showed a dissociation constant (Kd) of 10 µM. Further, the inhibition constant Ki on LSD1 [2] was determined as 8 µM. Besides, the inhibition at 100 µM at LSD1 [2] (setting [3]) is 93%. On LSD1 [2] (enzyme activity assay, inhibition kinetics), the mode of inhibition result is “competitive inhibitor”. For the same compound, at LSD1 [2] (supplement sheet SMILES and Activity, read-out: IC50), the concentration for half-maximal inhibition (IC50) was determined as 12.5 µM.
